Data on 2 molecules can be found in ChEMBL document CHEMBL6177973, “A Novel Compound 3a-M1, from Metabolites of Sinomenine Derivative 3a, Exerts Potent Anti-Aplastic Anemia Activity via IP3R/ORAI-Mediated CTL Ferroptosis” (J Med Chem, 2025).

A short description of series [1]: Oral bioavailability in Sprague-Dawley rat at 50 mg/kg measured for 0.083 to 24 hrs by HPLC analysis. The class given is ADME, organism-based. Conditions: in vivo, time 0.083-24 hrs.
Series [2] concerns Mus musculus. Nature of the series: Anti-aplastic anemia activity in BALB/c mouse model of immune-mediated bone marrow failure assessed as increase in animal survival at 10 mg/kg, po treated for 14 days. The class given is functional, organism-based. Particulars: time 14.0 day.
The subject of series [3] is Mus musculus. Nature of the series: Anti-aplastic anemia activity in BALB/c mouse model of immune-mediated bone marrow failure assessed as increase in hemoglobin level at 10 mg/kg, po treated for 14 days. The class given is functional, organism-based. Particulars: time 14.0 day.
For series [4], the system named is Mus musculus. Nature of the series: Anti-aplastic anemia activity in BALB/c mouse model of immune-mediated bone marrow failure assessed as increase in nucleated cells in bone marrow at 10 mg/kg, po treated for 14 days by H and E staining based analysis. The class given is functional, organism-based. Conditions: time 14.0 day.
In series [5] the test system is Mus musculus. The series can be described thus: Anti-aplastic anemia activity in BALB/c mouse model of immune-mediated bone marrow failure assessed as decrease in abnormal proportion of lymphocytes in bone marrow at 10 mg/kg, po treated for 14 days by H and E staining based analysis. Conditions: time 14.0 day. The class given is functional, organism-based.
Series [6] concerns Mus musculus. The series can be described thus: Anti-aplastic anemia activity in C57BL/6J mouse model of immune-mediated bone marrow failure assessed as increase in dietary intake at 5 to 15 mg/kg, IG qd treated for 21 days. The class given is functional, organism-based. Particulars: dose 5-15 mg/kg, time 21.0 day.
The test system of series [7] is Mus musculus. Nature of the series: Anti-aplastic anemia activity in C57BL/6J mouse model of immune-mediated bone marrow failure assessed as increase in peripheral red blood cells treated intragastrically once daily for 21 days. The class given is functional, organism-based. Conditions: dose 5-15 mg/kg, route ig, time 21.0 day.
Series [8] deals with Mus musculus. The series can be described thus: Anti-aplastic anemia activity in C57BL/6J mouse model of immune-mediated bone marrow failure assessed as CD8+ T cells at 15 mg/kg, IG qd treated for 12 days by flow cytometry (reference value: 72.15 %). Conditions: time 12 day. The class given is functional.
For series [9], the system named is Mus musculus. The series can be described thus: Anti-aplastic anemia activity in C57BL/6J mouse model of immune-mediated bone marrow failure assessed as increase in memory CD8+ T cells at 5 to 15 mg/kg, IG qd treated for 12 days by flow cytometry. The class given is functional, organism-based. Particulars: dose 5-15 mg/kg, time 12.0 day.
Series [10] concerns Mus musculus. The series can be described thus: Anti-aplastic anemia activity in C57BL/6J mouse model of immune-mediated bone marrow failure assessed as reduction in IFN-gamma level at 5 to 15 mg/kg, IG qd treated for 12 days by ELISA. The class given is functional, organism-based. Conditions: dose 5-15 mg/kg, time 12.0 day. (An ELISA detects its analyte on a solid surface through an enzyme-linked reagent.)

A further series deals with THP-1. Nature of the series: Cytotoxicity against human THP-1 cells assessed as inhibition of cell viability incubated for 72 hrs by CCK8 assay. The class given is functional, cell-based. Particulars: THP-1, 72 h. On the technique in general: Formazan colour is commonly taken as a measure of viable cells.
The test system of another series is HL-60. Nature of the series: Cytotoxicity against human HL-60 cells assessed as inhibition of cell viability incubated for 72 hrs by CCK8 assay. The class given is functional, cell-based. Conditions: HL-60, 72 h.
Series [11] concerns CTLL-2. Nature of the series: Induction of ferroptosis in mouse CTLL-2 cells assessed as increase in ROS level incubated for 16 hrs by DCFH-DA staining based flow cytometry. The class given is functional, cell-based. Conditions: dose 7.5-30 µM. In general terms: Flow cytometry measures light scatter and fluorescence of single cells or particles in a stream.
The test system of series [12] is CTLL-2. The series can be described thus: Induction of ferroptosis in mouse CTLL-2 cells assessed as increase in p-p38 level at 7.5 to 30 uM incubated for 16 hrs by Western blot analysis. The class given is functional, cell-based. Conditions: dose 7.5-30 µM.
The test system of series [13] is CTLL-2. Nature of the series: Induction of ferroptosis in IL-2-stimulated mouse CTLL-2 cells assessed as increase in mitochondrial superoxide level at 30 uM incubated for 6 hrs followed by Fer-1 addition measured after 10 hrs by MitoSOX Red staining based fluorescent microscopy. The class given is functional, cell-based. Particulars: time 16.0 hrs.
In series [14] the test system is CTLL-2. Nature of the series: Induction of ferroptosis in IL-2-stimulated mouse CTLL-2 cells assessed as increase in pMEK level at 30 uM incubated for 6 hrs followed by Fer-1 addition measured after 10 hrs by Western blot analysis. The class given is functional, cell-based. Conditions: time 16.0 hrs.
Series [15] relates to CTLL-2. The series can be described thus: Induction of ferroptosis in IL-2-stimulated mouse CTLL-2 cells assessed as increase in pERK level at 30 uM incubated for 6 hrs followed by Fer-1 addition measured after 10 hrs by Western blot analysis. The class given is functional, cell-based. Particulars: time 16.0 hrs.
Series [16] deals with CTLL-2. The series can be described thus: Induction of ferroptosis in IL-2-stimulated mouse CTLL-2 cells assessed as increase in p-p38 level at 30 uM incubated for 6 hrs followed by Fer-1 addition measured after 10 hrs by Western blot analysis. Conditions: time 16.0 hrs. The class given is functional, cell-based.
Series [17] deals with CTLL-2. The series can be described thus: Induction of ferroptosis in mouse CTLL-2 cells assessed as increase in intracellular Ca2+ concentration at 10 uM incubated for 60 mins in presence of EDTA by Fluo-4 AM dye based analysis. The class given is functional, cell-based.
Series [18] relates to CTLL-2. The series can be described thus: Induction of ferroptosis in mouse CTLL-2 cells assessed as increase in ROS level at 10 uM incubated for 45 mins in presence of CM4620. The class given is functional, cell-based.
The subject of a further series is HepG2. Nature of the series: Induction of ferroptosis in human HepG2 cells assessed as increase in intracellular Ca2+ concentration at 10 uM by Fluo-4 AM dye based analysis. The class given is functional, cell-based.
Series [19] in a line: Drug metabolism in rat plasma assessed as double hydrolyzation-mediated metabolite formation at 50 mg/kg, po measured for 24 hrs by HRMS analysis. The class given is ADME, organism-based. Conditions: in vivo.
The nature of series [20]: Drug metabolism in Sprague-Dawley rat plasma assessed as (4bR,9S)-1-(hydroxymethyl)-3,7-dimethoxy-11-methyl-6-oxo-6,8a,9,10-tetrahydro-5H-9,4b-(epiminoethano)phenanthren-4-yl cinnamate metabolite formation at 50 mg/kg, po measured for 24 hrs by HPLC analysis. The class given is ADME, organism-based. Conditions: in vivo.
Series [21] is described as follows: Drug metabolism in Sprague-Dawley rat plasma assessed as (4bR,9S)-1-(hydroxymethyl)-3,7-dimethoxy-11-methyl-6-oxo-6,8a,9,10-tetrahydro-5H-9,4b-(epiminoethano)phenanthren-4-yl cinnamate metabolite formation at 5 mg/kg, iv measured for 24 hrs by HPLC analysis. The class given is ADME, organism-based. Particulars: in vivo.
Series [22] is described as follows: Drug metabolism in mouse lymph node assessed as (4bR,9S)-1-(hydroxymethyl)-3,7-dimethoxy-11-methyl-6-oxo-6,8a,9,10-tetrahydro-5H-9,4b-(epiminoethano)phenanthren-4-yl cinnamate metabolite formation at 50 mg/kg, po measured for 0.083 to 8 hrs by HPLC analysis. The class given is ADME, organism-based. Conditions: in vivo, time 0.083-8 hrs.
A short description of series [23]: Drug metabolism in mouse kidney assessed as (4bR,9S)-1-(hydroxymethyl)-3,7-dimethoxy-11-methyl-6-oxo-6,8a,9,10-tetrahydro-5H-9,4b-(epiminoethano)phenanthren-4-yl cinnamate metabolite formation at 50 mg/kg, po measured for 0.083 to 8 hrs by HPLC analysis. Conditions: in vivo, time 0.083-8 hrs. The class given is ADME, organism-based.
Series [24] is described as follows: Stability in mouse bone marrow assessed as compound remaining at 50 mg/kg, po measured for 0.083 to 8 hrs by HPLC analysis. Particulars: in vivo, time 0.083-8 hrs. The class given is ADME, organism-based.
Series [25] is described as follows: Stability in mouse lymph node assessed as compound remaining at 50 mg/kg, po measured for 0.083 to 8 hrs by HPLC analysis. The class given is ADME, organism-based. Conditions: in vivo, time 0.083-8 hrs.
Series [26] in a line: Stability in mouse liver assessed as compound remaining at 50 mg/kg, po measured for 0.083 to 8 hrs by HPLC analysis. The class given is ADME, organism-based. Particulars: in vivo, time 0.083-8 hrs.
A short description of series [27]: Drug metabolism in Sprague-Dawley rat plasma assessed as cinnamic acid metabolite formation at 50 mg/kg, po measured for 24 hrs by HPLC analysis. The class given is ADME, organism-based. Particulars: in vivo.
A short description of series [28]: Drug metabolism in mouse bone marrow assessed as cinnamic acid metabolite formation at 50 mg/kg, po measured for 0.083 to 8 hrs by HPLC analysis. The class given is ADME, organism-based. Conditions: in vivo, time 0.083-8 hrs.
Series [29] can be described thus: Drug metabolism in mouse spleen assessed as cinnamic acid metabolite formation at 50 mg/kg, po measured for 0.083 to 8 hrs by HPLC analysis. The class given is ADME, organism-based. Particulars: in vivo, time 0.083-8 hrs.

Calls of active or inactive are those of the source. The rule behind the calls is not given here.

Regarding `COC1=C[C@@H]2[C@@H]3Cc4c(CO)cc(OC)c(OC(=O)/C=C/c5ccccc5)c4[C@]2(CCN3C)CC1=O`, the bioavailability in [1] turned out to be 59.2%. The Activity entry with Mus musculus [2] was “Active; All Mice Survived”; in the series on Mus musculus [7], “Dose-dependent-effect”; in the series with Mus musculus [8], 35.23%; with CTLL-2 [11], “Dose-dependent-effect”; with HepG2, “Not active; Elevation Was Smaller Than In Mouse Ctll-2 Cells”. The result with Mus musculus [3], in the series with Mus musculus [4], in the series with Mus musculus [5], in the series on Mus musculus [6], with Mus musculus [9] and in the series on Mus musculus [10] was Active. The outcome in the series with CTLL-2 [12] and in the series on CTLL-2 [17] was Active. Moreover, the IC50 was determined as 125 µM in the series on THP-1 and 133 µM in the series on HL-60. The result with CTLL-2 [13], in the series on CTLL-2 [14], with CTLL-2 [15], with CTLL-2 [16] and with CTLL-2 [18] was inactive.

For `COC1=C[C@@H]2[C@@H]3Cc4c(COC(=O)/C=C/c5ccccc5)cc(OC)c(OC(=O)/C=C/c5ccccc5)c4[C@]2(CCN3C)CC1=O`, the Drug metabolism result in series [19], in series [20], in series [21], in series [22], in series [23] and in [27] was “metabolite_detected” in each case. For the same molecule, the Drug metabolism result in series [28] and in series [29] was “metabolite_detected” each time. In addition, the Stability result in [24], in series [25] and in [26] was “Unstable” in each case. Besides, in series [1], the bioavailability was determined as 18%. In addition, in the series with Mus musculus [2], the outcome was Active.

In general, bioavailability refers to dose-corrected exposure relative to a reference, in per cent. One may read the IC50 as the point on the concentration scale where inhibition reaches its midpoint.
